Test results published in the kinase profiling compilation of Christmann-Franck et al. (2016).

Key:
Assay in all cases: radiometric filter-binding kinase assay, Kinaseprofiler
[1] = test system: PHKG2 (human), P15735 [F290L]; conditions: ATP 10 µM
[2] = test system: GSK3B (human), P49841 [H350L]; conditions: ATP 15 µM
[3] = test system: AKT3 (human), Q9Y243 [S472D]; conditions: ATP 45 µM
[4] = test system: MAPKAPK5 (human), Q8IW41 [R291E]; conditions: ATP 15 µM
[5] = test system: CSNK1G3 (human), Q9Y6M4 [K91E/R174G/E302D]; conditions: ATP 10 µM
Chain of CSNK1G3 (human), Q9Y6M4 [K91E/R174G/E302D] (Q9Y6M4 whole entry, looked up, stated change not applied): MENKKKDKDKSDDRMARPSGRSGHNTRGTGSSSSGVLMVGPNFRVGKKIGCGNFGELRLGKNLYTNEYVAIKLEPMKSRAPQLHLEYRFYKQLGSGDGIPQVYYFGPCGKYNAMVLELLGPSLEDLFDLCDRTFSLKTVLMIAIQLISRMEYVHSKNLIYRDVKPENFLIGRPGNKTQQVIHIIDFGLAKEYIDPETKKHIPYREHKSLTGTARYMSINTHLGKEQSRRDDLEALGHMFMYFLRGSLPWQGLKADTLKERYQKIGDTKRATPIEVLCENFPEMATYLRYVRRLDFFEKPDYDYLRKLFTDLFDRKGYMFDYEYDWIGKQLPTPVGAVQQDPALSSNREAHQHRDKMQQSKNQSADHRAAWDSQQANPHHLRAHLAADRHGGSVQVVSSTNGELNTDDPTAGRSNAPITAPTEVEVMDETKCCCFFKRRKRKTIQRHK

[6] = test system: ROS1 (human), P08922 [V2262A]; conditions: ATP 200 µM
Chain of ROS1 (human), P08922 [V2262A] (P08922 whole entry, looked up, stated change not applied): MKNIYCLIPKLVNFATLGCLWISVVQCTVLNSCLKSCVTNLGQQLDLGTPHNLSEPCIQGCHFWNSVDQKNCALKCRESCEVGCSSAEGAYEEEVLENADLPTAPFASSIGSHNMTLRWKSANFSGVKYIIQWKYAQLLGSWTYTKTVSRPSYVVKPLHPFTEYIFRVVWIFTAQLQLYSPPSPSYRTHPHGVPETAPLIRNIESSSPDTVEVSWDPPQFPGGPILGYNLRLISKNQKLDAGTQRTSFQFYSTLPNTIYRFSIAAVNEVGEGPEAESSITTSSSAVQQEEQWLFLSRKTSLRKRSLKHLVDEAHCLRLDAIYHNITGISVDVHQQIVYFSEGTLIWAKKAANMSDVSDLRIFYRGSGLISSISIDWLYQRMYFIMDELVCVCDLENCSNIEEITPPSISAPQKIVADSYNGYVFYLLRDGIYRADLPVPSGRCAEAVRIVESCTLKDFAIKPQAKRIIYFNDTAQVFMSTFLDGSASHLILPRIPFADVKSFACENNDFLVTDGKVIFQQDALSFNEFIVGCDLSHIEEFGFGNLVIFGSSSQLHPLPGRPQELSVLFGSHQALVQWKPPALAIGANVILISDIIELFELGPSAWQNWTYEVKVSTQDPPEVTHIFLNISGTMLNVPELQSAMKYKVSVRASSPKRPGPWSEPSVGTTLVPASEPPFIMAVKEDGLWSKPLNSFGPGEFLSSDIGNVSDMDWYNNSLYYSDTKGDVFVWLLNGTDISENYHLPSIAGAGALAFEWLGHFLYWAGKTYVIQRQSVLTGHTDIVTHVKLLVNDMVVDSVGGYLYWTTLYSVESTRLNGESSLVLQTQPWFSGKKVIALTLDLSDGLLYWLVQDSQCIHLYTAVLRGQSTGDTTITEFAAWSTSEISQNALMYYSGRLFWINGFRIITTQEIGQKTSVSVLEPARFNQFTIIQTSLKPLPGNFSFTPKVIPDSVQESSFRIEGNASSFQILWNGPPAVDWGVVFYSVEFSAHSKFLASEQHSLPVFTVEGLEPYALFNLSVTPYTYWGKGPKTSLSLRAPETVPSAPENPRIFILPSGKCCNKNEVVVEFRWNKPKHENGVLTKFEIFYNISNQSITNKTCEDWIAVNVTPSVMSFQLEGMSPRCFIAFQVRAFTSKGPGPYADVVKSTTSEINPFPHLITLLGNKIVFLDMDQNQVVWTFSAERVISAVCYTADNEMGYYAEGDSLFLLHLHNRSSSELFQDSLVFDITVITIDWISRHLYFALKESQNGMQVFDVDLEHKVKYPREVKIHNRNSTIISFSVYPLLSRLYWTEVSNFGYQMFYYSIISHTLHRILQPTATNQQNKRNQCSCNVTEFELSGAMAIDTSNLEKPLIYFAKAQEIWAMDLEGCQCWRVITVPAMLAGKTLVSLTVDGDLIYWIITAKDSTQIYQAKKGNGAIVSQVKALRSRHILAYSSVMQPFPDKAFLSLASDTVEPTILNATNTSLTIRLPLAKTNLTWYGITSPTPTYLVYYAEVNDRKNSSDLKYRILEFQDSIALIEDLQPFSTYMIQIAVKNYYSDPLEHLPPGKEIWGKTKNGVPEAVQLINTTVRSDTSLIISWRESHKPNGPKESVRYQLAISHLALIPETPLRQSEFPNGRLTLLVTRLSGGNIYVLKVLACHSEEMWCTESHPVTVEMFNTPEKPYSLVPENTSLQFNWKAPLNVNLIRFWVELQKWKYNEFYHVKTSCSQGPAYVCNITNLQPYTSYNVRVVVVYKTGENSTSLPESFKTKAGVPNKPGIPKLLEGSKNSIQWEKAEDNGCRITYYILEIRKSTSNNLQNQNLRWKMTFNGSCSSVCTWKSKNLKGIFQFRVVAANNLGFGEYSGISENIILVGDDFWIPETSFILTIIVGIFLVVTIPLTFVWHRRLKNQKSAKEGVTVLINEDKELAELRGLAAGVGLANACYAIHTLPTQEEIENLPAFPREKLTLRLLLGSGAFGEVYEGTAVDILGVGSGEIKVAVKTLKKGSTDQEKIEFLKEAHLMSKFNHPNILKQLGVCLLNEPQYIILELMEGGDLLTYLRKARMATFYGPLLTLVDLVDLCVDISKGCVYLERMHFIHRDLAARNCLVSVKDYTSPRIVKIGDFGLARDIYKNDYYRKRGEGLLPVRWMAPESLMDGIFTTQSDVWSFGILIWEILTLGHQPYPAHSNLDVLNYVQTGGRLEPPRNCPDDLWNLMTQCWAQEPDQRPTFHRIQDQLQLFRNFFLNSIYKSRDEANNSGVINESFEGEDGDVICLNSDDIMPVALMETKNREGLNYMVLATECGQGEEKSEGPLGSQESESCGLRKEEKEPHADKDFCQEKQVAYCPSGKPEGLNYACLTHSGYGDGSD

Chain of MAPKAPK5 (human), Q8IW41 [R291E] (Q8IW41 whole entry, looked up, stated change not applied): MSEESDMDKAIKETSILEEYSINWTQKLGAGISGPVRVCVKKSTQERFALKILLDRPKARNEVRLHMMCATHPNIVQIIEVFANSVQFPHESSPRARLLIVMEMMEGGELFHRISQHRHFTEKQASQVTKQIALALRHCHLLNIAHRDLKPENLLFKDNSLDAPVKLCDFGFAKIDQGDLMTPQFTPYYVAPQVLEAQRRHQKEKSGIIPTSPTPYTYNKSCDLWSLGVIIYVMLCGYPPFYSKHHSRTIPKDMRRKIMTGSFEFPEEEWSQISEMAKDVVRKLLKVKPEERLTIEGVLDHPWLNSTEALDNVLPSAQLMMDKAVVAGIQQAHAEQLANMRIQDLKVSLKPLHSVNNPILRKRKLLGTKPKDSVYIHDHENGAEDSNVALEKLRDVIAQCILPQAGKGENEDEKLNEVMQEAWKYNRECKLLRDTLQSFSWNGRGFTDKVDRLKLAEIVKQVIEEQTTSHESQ
Chain of GSK3B (human), P49841 [H350L] (P49841 whole entry, looked up, stated change not applied): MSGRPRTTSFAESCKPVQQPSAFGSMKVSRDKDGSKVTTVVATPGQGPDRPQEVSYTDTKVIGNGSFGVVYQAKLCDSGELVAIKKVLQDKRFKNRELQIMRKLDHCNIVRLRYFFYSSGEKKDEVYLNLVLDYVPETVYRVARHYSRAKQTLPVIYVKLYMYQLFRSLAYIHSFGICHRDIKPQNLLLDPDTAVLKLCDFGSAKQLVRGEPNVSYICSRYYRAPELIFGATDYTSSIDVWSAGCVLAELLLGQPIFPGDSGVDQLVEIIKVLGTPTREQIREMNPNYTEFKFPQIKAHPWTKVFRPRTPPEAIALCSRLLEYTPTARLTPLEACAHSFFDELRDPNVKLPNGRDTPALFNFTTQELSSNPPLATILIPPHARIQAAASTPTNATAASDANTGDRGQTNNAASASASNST
Chain of PHKG2 (human), P15735 [F290L] (P15735 whole entry F290L, looked up): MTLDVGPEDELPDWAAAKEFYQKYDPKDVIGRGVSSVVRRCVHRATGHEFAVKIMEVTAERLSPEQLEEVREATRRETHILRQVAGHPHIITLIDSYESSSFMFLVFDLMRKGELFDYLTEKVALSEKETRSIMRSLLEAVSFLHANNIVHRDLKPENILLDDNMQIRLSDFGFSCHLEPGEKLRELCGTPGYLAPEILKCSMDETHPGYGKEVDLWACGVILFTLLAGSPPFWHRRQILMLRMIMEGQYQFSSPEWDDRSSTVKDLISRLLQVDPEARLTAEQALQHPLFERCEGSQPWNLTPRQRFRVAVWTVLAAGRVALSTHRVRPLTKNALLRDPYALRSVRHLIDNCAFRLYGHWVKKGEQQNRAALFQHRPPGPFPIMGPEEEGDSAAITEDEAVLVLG
Chain of AKT3 (human), Q9Y243 [S472D] (Q9Y243 whole entry S472D, looked up): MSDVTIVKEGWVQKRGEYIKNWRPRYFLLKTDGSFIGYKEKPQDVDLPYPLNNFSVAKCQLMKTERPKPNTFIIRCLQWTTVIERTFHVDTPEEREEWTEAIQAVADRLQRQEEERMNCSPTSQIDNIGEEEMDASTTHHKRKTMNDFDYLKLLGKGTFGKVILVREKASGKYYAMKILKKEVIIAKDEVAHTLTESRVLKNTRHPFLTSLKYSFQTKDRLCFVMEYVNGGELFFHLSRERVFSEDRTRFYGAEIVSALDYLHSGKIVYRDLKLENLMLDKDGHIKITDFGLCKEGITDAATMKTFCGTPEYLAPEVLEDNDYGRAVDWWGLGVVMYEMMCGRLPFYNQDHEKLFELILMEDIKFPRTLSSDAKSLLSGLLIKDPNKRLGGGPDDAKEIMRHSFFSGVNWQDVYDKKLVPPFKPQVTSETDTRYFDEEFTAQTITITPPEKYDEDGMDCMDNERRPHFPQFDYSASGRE

| SMILES | residual activity ([1]; compound 10.0 µM) | residual activity ([1]; compound 1.0 µM) | residual activity ([2]; compound 1.0 µM) | residual activity ([2]; compound 10.0 µM) | residual activity ([3]; compound 1.0 µM) | residual activity ([3]; compound 10.0 µM) | residual activity ([4]; compound 1.0 µM) | residual activity ([4]; compound 10.0 µM) | residual activity ([5]; compound 1.0 µM) | residual activity ([5]; compound 10.0 µM) | residual activity ([6]; compound 1.0 µM) | residual activity ([6]; compound 10.0 µM) |
| --- | --- | --- | --- | --- | --- | --- | --- | --- | --- | --- | --- | --- |
| O=C1c2ccccc2-c2n[nH]c3cccc1c23 | 15% | 77% | 74% | 58% | 89% | 66% | 59% | 14% | 83% | 31% | 93% | 85% |
| COC(=O)[C@]1(O)C[C@@H]2O[C@@]1(C)n1c3ccccc3c3c4c(c5c6ccccc6n2c5c31)C(=O)NC4 | – | 0% | – | – | – | – | – | 0% | – | – | – | – |
| CN[C@@H]1C[C@H]2O[C@@](C)([C@@H]1OC)n1c3ccccc3c3c4c(c5c6ccccc6n2c5c31)C(=O)NC4 | – | – | – | – | – | 0% | – | – | 95% | 52% | – | – |

The next lines start with the values.

| residual activity ([1]; compound 10.0 µM) | residual activity ([1]; compound 1.0 µM) | residual activity ([2]; compound 1.0 µM) | residual activity ([2]; compound 10.0 µM) | residual activity ([3]; compound 1.0 µM) | residual activity ([3]; compound 10.0 µM) | residual activity ([4]; compound 1.0 µM) | residual activity ([4]; compound 10.0 µM) | residual activity ([5]; compound 1.0 µM) | residual activity ([5]; compound 10.0 µM) | residual activity ([6]; compound 1.0 µM) | residual activity ([6]; compound 10.0 µM) | SMILES |
| --- | --- | --- | --- | --- | --- | --- | --- | --- | --- | --- | --- | --- |
| 100% | – | – | – | – | – | – | – | – | – | – | – | O=C(Nc1cccc(Nc2nccc(Nc3cccc(C(F)(F)F)c3)n2)c1)C1CC1 |
| 12% | 25% | 10% | 1% | 95% | 64% | 78% | 24% | 63% | 20% | 105% | 88% | O=C1Nc2ccccc2/C1=C1\Nc2ccccc2\C1=N/O |
